In US20260083704A1, “LXR MODULATORS WITH BICYCLIC CORE MOIETY FOR TREATING DYSLIPIDEMIAS” (OrsoBio, Inc., priority 2022, published 2026) one finds EC50 data, which are given here for 28 compounds.

For experiment [1], the target named is T1, GST-LXRβ ligand-binding domain (Homo sapiens, UniProt P55055).
T1 construct: amino acids 156-461; NP009052; made in house; host or cells: E. coli
T1 sequence (P55055 156-460 limits assumed): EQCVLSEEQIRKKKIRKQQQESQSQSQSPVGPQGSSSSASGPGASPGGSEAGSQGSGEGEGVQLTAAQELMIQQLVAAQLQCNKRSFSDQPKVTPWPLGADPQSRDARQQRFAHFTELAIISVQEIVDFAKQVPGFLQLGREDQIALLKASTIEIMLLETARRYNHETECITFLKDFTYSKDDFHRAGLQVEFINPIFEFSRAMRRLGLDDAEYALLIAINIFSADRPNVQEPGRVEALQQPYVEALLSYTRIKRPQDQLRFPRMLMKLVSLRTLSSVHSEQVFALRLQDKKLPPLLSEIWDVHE
The experiment is described as follows: TR-FRETβ activity assay (NCoA3 coactivator peptide recruitment). Format: biochemical. As to conditions: 1 μM 24(S)-25-epoxycholesterol prestimulation. As for the experimental part: Recombinant GST-LXRβ ligand-binding domain (LBD; amino acids 156-461; NP009052; SEQ ID NO:4) was expressed in E. coli and purified via gluthatione-sepharose affinity chromatography. N-terminally biotinylated NCoA3 coactivator peptide (SEQ ID NO:7) was chemically synthesized (Eurogentec). Assays were done in 384 well format (final assay volume of 25 μL/well) in a Tris/HCl buffer (pH 6.8) containing KCl, bovine serum albumin, Triton-X-100 and 1 μM 24(S)-25-epoxycholesterol as LXR-prestimulating agonist. Assay buffer was provided and test articles (potential LXR inverse agonists) were titrated to yield final assay concentrations of 50 μM, 16.7 μM, 5.6 μM, 1.9 μM, 0.6 μM, 0.2 μM, 0.07 μM, 0.02 μM, 0.007 μM, 0.002 μM with one vehicle control. Finally, a detection mix was added containing anti GST-Tb cryptate (CisBio; 610SAXLB) and Streptavidin-XL665 (CisBio; 610SAXLB) as fluorescent donor and acceptor, respectively, as well as the coactivator peptide and LXRβ-LBD protein (SEQ ID NO:4). The reaction was mixed thoroughly, equilibrated for 1 h at 4° C. and vicinity of LXRβ and coactivator peptide was detected by measurement of fluorescence in a VictorX4 multiplate reader (PerkinElmer Life Science) using 340 nm as excitation and 615 and 665 nm as emission wavelengths. Assays were performed in triplicates.
240 mM KCl, 1 μg/μL BSA, 0.002% Triton-X-100, […] anti GST-Tb cryptate, 2.5 ng/μL Streptavidin-XL665, coactivator peptide (400 nM), LXRβ protein (530 μg/mL, i.e. 76 nM).

Another experiment concerns the target T2, LXRβ (Homo sapiens, UniProt P55055).
T2 sequence (P55055 1-460): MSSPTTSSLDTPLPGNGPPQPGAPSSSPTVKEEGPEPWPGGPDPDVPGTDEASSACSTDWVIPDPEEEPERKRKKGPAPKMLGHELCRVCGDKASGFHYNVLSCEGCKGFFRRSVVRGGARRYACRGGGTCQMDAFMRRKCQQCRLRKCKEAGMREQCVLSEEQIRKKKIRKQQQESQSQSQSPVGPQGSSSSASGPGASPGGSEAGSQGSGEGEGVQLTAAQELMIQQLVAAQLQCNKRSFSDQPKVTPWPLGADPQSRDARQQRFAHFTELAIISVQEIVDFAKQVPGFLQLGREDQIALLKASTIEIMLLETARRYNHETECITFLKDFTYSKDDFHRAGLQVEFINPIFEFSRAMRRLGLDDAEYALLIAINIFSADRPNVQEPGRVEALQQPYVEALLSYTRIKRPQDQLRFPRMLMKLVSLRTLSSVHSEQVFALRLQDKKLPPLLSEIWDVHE
The experiment can be described thus: LXR Gal4 reporter transient transfection assay (mammalian two-hybrid, HEK293), LXRβ. More on the design: LXRβ (amino acids 156-461); expressed in transfected cells; host or cells: HEK293. Format: cell-based. As to conditions: full length (FL) LXRβ, HEK293; read-out: FL-M2H Gal4β. As for the experimental part: LXRα and LXRβ activity status was determined via detection of interaction with coactivator and corepressor proteins in mammalian two-hybrid experiments (M2H). For this, via transient transfection the full length (FL) proteins of LXRα (amino acids 1-447; NP005684; SEQ ID NO:1) or LXRβ-(amino acids 1-461; NP009052; SEQ ID NO:2) or the ligand-binding domains (LBD) of LXRα (amino acids 155-447 SEQ ID NO:3) or LXRβ (amino acids 156-461; SEQ ID NO:4) were expressed from pCMV-AD (Stratagene) as fusions to the transcriptional activation domain of NFkB. As cofactors, domains of either the steroid receptor coactivator 1 (SRC1; amino acids 552-887; SEQ ID NO:5) or of the corepressor NCoR (amino acids 1906-2312; NP006302; SEQ ID NO:6) were expressed as fusions to the DNA binding domain of the yeast transcription factor GAL4 (from pCMV-BD; Stratagene). Interaction was monitored via activation of a coexpressed Firefly Luciferase Reporter gene under control of a promoter containing repetitive GAL4 response elements (vector pFRLuc; Stratagene). Transfection efficiency was controlled via cotransfection of constitutively active pRL-CMV Renilla reniformis luciferase reporter (Promega). HEK293 cells were grown in minimum essential medium (MEM) with 2 mM L-glutamine and Earle's balanced salt solution supplemented with 8.3% fetal bovine serum, 0.1 mM non-essential amino acids, 1 mM sodium pyruvate, at 37° C. in 5% CO2. 3.5×10^4 cells/well were plated in 96-well cell culture plates in growth medium supplemented with 8.3% fetal bovine serum for 16-20 h to ˜90% confluency. For transfection, medium was taken off and LXR and cofactor expressing plasmids as well as the reporter plasmids are added in 30 μL OPTIMEM/well including polyethylene-imine (PEI) as vehicle. Typical amounts of plasmids transfected/well: pCMV-AD-LXR (5 ng), pCMV-BD-cofactor (5 ng), pFR-Luc (100 ng), pRL-CMV (0.5 ng). Compound stocks were prepared in DMSO, prediluted in MEM to a total volume of 120 μL, and added 4 h after addition of the transfection mixture (final vehicle concentration not exceeding 0.2%). Cells were incubated for additional 16 h, lysed for 10 min in 1×Passive Lysis Buffer (Promega) and Firefly and Renilla luciferase activities were measured sequentially in the same cell extract using buffers containing D-luciferine and coelenterazine, respectively. Measurements of luminescence were done in a BMG-luminometer.
The potencies of Compound 21/3 and its analog, Compound pre-6/3, against LXRα and LXRβ were evaluated in biochemical binding assays, cellular mammalian two-hybrid (M2H) interaction assays evaluating nuclear receptor co-repressor (NCOR) recruitment, and cellular reporter assays evaluating transcriptional activity (Table 5).

A value given as a limit tells only on which side of the number the result lay.

With `COc1ccc2c(c1)c(-c1ccsc1C#N)c(-c1cccs1)n2S(=O)(=O)c1ccc(Cl)cc1` [1/39], in experiment [1], the EC50 is greater than 10000 nM.
In the case of `N#Cc1ccccc1-c1c(-c2cccc(-c3ccc(C(=O)O)c4c3OCO4)c2)n(S(=O)(=O)c2ccc(C(F)F)cc2)c2ccc(F)cc12` [11/28], the EC50 (in experiment [1]; on LXRβ) was less than 100 nM each time.
`CC(O)(C(=O)O)c1ccc(-c2cccc(-c3c(-c4c(C#N)cccc4C#N)c4cc(F)ccc4n3S(=O)(=O)c3ccc(C(F)F)cc3)c2)c(Cl)c1` (stereo not drawn) [11/60]: the EC50 on LXRβ is less than 100 nM.
As for `N#Cc1cccc(C#N)c1-c1c(-c2cccc(-c3ccc(C(=O)O)c(F)c3F)c2)n(S(=O)(=O)c2ccc(C(F)F)cc2)c2ccc(F)cc12` [11/52], the EC50 (in experiment [1]; at LXRβ) was less than 100 nM each time.
As for `CC(C)(C)OC(=O)CNC(=O)c1ccc(-c2cccc(-c3c(-c4c(C#N)cccc4C#N)c4cc(F)ccc4n3S(=O)(=O)c3ccc(C(F)F)cc3)c2)c(Cl)c1` [6/3], the EC50 (in experiment [1]; at LXRβ) was less than 100 nM each time.
As to `CCc1ccc(S(=O)(=O)n2c(-c3cccc(N4CC(C(=O)O)C4)c3)c(-c3ccsc3C#N)c3cc(F)ccc32)cc1` [3/10], the EC50 was 100 to 1000 nM in experiment [1] and less than 100 nM on LXRβ.
As to `N#Cc1sccc1-c1c(-c2cccc(-c3ccc(C(=O)NCCS(=O)(=O)O)cc3Cl)c2)n(S(=O)(=O)c2ccc(C(F)F)cc2)c2ccc(F)cc12` [10/3], the EC50 (in experiment [1]; on LXRβ) was less than 100 nM each time.
`Cc1ccc(S(=O)(=O)n2c(-c3cccc(-c4cc(C(=O)O)nn4C(C)C)c3)c(-c3ccsc3C#N)c3cc(F)ccc32)cc1` [12/8]: the EC50 in experiment [1] was in the range of 1000 to 10000 nM; on LXRβ, 100 to 1000 nM.
As for `Cc1ccc(S(=O)(=O)n2c(-c3cccc(N4CCC(C(=O)O)CC4)c3)c(-c3ccsc3C#N)c3cc(F)ccc32)cc1` [3/38], the EC50 in experiment [1] was 100 to 1000 nM; on LXRβ, less than 100 nM.
In the case of `N#Cc1sccc1-c1c(-c2cccc(-c3ccc(C(=O)O)cc3)c2)n(S(=O)(=O)c2ccc3c(c2)CCC3)c2ccc(F)cc12` [23/3], the EC50 in experiment [1] is 100 to 1000 nM; on LXRβ it was less than 100 nM.
Regarding `N#Cc1ccncc1-c1c(-c2cccc(-c3cc(F)c(C(=O)O)cc3Cl)c2)n(S(=O)(=O)c2ccc(C(F)F)cc2)c2ccc(F)cc12` [11/10], the EC50 (in experiment [1]; at LXRβ) was less than 100 nM throughout.
As for `COC(=O)C(C)(C)N(C)C(=O)C1CN(c2cccc(-c3c(-c4ccsc4C#N)c4cc(F)ccc4n3S(=O)(=O)c3ccc(C)cc3)c2)C1` [32/2], the EC50 (in experiment [1]; at LXRβ) was 100 to 1000 nM each time.
Turning to `O=C(O)c1ccc(-c2cccc(-c3c(-c4ncccc4OC(F)F)c4cc(F)ccc4n3S(=O)(=O)c3ccc(C(F)F)cc3)c2)c(Cl)c1` [11/41], the EC50 (in experiment [1]; at LXRβ) was less than 100 nM in each case.
Consider `Cc1ccc(S(=O)(=O)n2c(-c3cccc(C45CC(C(=O)O)(C4)C5)c3)c(-c3ccsc3C#N)c3ccccc32)cc1` [5/2], for which the EC50 (in experiment [1]; on LXRβ) was 100 to 1000 nM in each case.
With `Cc1ccc(S(=O)(=O)n2c(-c3cccc(C4CC(C(=O)O)C4)c3)c(-c3ccsc3C#N)c3cc(F)ccc32)cc1` (stereo not drawn) [3/39], the values for the EC50 (in experiment [1]; at LXRβ) were 100 to 1000 nM and less than 100 nM, respectively.
`N#Cc1sccc1-c1c(-c2ccccc2)n(S(=O)(=O)c2ccc(-c3cccc(C(=O)O)c3)cc2)c2ccccc12` [27/2]: in experiment [1], the EC50 is 1000 to 10000 nM.
As for `Cc1ccc(S(=O)(=O)n2c(-c3cccc(-c4cccc(S(C)(=O)=Nc5nnn[nH]5)c4)c3)c(-c3ccsc3C#N)c3cc(F)ccc32)cc1` (stereo not drawn) [37/1], the EC50 (in experiment [1]; at LXRβ) was 100 to 1000 nM each time.
In the case of `N#Cc1cncc(C#N)c1-c1c(-c2cccc(-c3ccc(C(=O)O)cc3Cl)c2)n(S(=O)(=O)c2ccc(C(F)F)cc2)c2ccc(F)cc12` [11/67], the EC50 in experiment [1] was 100 to 1000 nM; at LXRβ it was less than 100 nM.
For `Cc1ccc(S(=O)(=O)n2c(-c3cc(N4CC(C(=O)O)C4)ccc3Cl)c(-c3ccsc3C#N)c3cc(F)ccc32)cc1` [3/40] the same measures were 1000 to 10000 nM and less than 100 nM.
For `Cc1ccc(S(=O)(=O)n2c(-c3cccc(-c4ccc(C(C)(C)N)cc4Cl)c3)c(-c3ccsc3C#N)c3cc(F)ccc32)cc1` [2/2] the same measures were 100 to 1000 nM and 100 to 1000 nM.
In turn, `N#Cc1sccc1-c1c(-c2cccs2)n(S(=O)(=O)c2ccc(Cl)cc2)c2cc(OCC(=O)O)ccc12` [15/3] returned an EC50 in experiment [1] greater than 10000 nM.
Same read-out and setting: the figure for `N#Cc1sccc1-c1c(-c2ccccc2)n(S(=O)(=O)c2ccc(CC(=O)O)cc2)c2ccccc12` [27/1] is 1000 to 10000 nM.
Compound `N#Cc1sccc1-c1c(-c2ccccc2)n(S(=O)(=O)c2ccc(CC(=O)O)s2)c2ccccc12` [27/3] displayed an EC50 in experiment [1] greater than 10000 nM.
Same read-out and setting: the figure for `Cc1ccc(S(=O)(=O)n2c(-c3cccc(S(=O)(=O)CC(=O)O)c3)c(-c3ccsc3C#N)c3ccccc32)cc1` [3/15] is 1000 to 10000 nM; for `N#Cc1sccc1-c1c(-c2cccc(N3CC(C(=O)O)C3)c2)n(S(=O)(=O)c2ccc(OC(F)F)cc2)c2ccc(F)cc12` [3/11] it is 1000 to 10000 nM.
`N#Cc1sccc1-c1c(-c2cccs2)n(S(=O)(=O)c2ccc(Cl)cc2)c2cc(C(=O)O)ccc12` [Compound 19] showed an EC50 in experiment [1] greater than 10000 nM.
In experiment [1], `Cc1cccc(C#N)c1-c1c(-c2cccc(-c3ccc(C(=O)O)cc3Cl)c2)n(S(=O)(=O)c2ccc(C(F)F)cc2)c2ccc(F)cc12` [41/1, 2-chloro-3′-(3-(2-cyano-6-methylphenyl)-1-((4-(difluoro-methyl)phenyl)sulfonyl)-5-fluoro-1H-indol-2-yl)-[1,1′-biphenyl]-4-carboxylic acid] came in with an EC50 of less than 100 nM.
As to `Cn1cnc(S(=O)(=O)n2c(-c3cccc(C4CC4C(=O)O)c3)c(-c3ccsc3C#N)c3ccccc32)c1` (stereo not drawn) [30/10], the EC50 in experiment [1] was greater than 10000 nM.
